Results from paper PMC12592400, “A unique inhibitor conformation selectively targets the DNA polymerase PolC of Gram-positive priority pathogens” (Nature Communications, 2025).
In brackets after ≈: the same amount, converted by molar mass. Like-named read-outs stand apart in the source and are kept apart here.

Tests used:
[1] = system: E. faecium strains with polC mutations (A1281T, F1276I, F1276L, F1276S); assay: Cross-resistance MIC of reduced susceptible E. faecium strains; format: cell-based, Enterococcus faecium; conditions: for MIC: Enterococcus faecium
Description: Strains with reduced susceptibility to ACX compounds were generated by WuXi Apptec on behalf of Acurx Pharmaceuticals, Inc., using E. faecium ATCC 700221 as parental strain.
Agar MICs for the wild-type strain were determined on Blood agar (Huankai). Compounds and linezolid were dissolved in 100% DMSO and vancomycin in ultrapure water. Strains were inoculated onto agar plates, incubated at 37 °C for 20-24 h after which colonies were suspended in sterile 0.9% saline at different bacterial concentrations. 5 μL of bacterial suspensions was individually spotted on agar plates supplemented with compounds at different concentrations, resulting in final concentrations of 10^–1, 10^–2, 10^–3, 10^–4, 10^–5, 10^–6, and 10^–7 per spot. After incubation for 20-24 h, bacterial growth was assessed by visual inspection.
For frequency of resistance (FOR) studies, colonies from the agar plate were suspended into sterile 0.9% saline to get 10^8-10^9 CFU bacterial cells per mL. […] The suspensions were also serially diluted with 0.9% saline and spotted onto agar to determine the actual inoculum. All agar plates were incubated at 37 °C for 48 h. FOR was defined as colony number on each compound-containing plate per CFU number of actual inoculum. Resistant colonies were subcultured on the corresponding compound plates to confirm that colonies were resistant and stable.
Confirmed resistant colonies were used for cross-resistance studies, as described above.
Paired-end short read sequencing data from selected mutants (generated by BGISEQ) as well as the corresponding wild-type parental strain was analysed against the reference genomes for E. faecium strain ATCC 700221 (https://genomes.atcc.org/genomes/f9d13a716ccb4f78) using Geneious R10.2.6 (Biomatters Ltd). Variants were called using the Find Variants/SNPs function with a minimum coverage of 10 and a minimum frequency of 0.8. […] This identified the following mutations in the polC gene: D1103Y in strain Efa4; F1276L in strains Efa030, Efa038, and Efa039; F1276I in strains Efa1 and Efa037; F1276S in strain Efa3; A1281T in strains Efa036, Efa040 and Efa041. Strains Efa036, Efa039, and Efa040 each had only one polymorphism identified.

[2] = system: Escherichia coli ATCC 25922; assay: Broth microdilution MIC; format: cell-based
Description: (§1) Minimal inhibitory concentrations (MICs) were determined by WuXi Apptec, on behalf of Acurx Pharmaceuticals, Inc., for the Gram-positive pathogens: Enterococcus faecium ATCC 700221 (VRE; vancomycin-resistant), Enterococcus faecalis ATCC 29212, Staphylococcus aureus NRS384 (MRSA; methicillin-resistant), Staphylococcus aureus ATCC 29213 (MSSA; methicillin-sensitive), and Streptococcus pneumoniae ATCC 49619 (PRSP; penicillin-resistant). As a control, Gram-negative Escherichia coli ATCC 25922 was included. All strains were obtained from ATCC with the exception of Staphylococcus aureus NRS384, which was obtained from NARSA (Network on Antimicrobial Resistance in Staphylococcus aureus, now part of BEI resources). Bacteria were cultured according to the manuals provided by the suppliers and stored in 25% glycerol (final concentration) at –80 °C.
(§2) Bacterial strains were streaked out onto MHA plates (Mueller-Hinton II Agar; BD-211438) and incubated at 37 °C for 20 h except for S. pneumoniae and Enterococci, which were streaked on blood agar (Huankai-24070). S. pneumoniae was incubated in 5% CO2. Single colonies were suspended in 5 mL sterile saline, the turbidity was adjusted to 0.20 (Siemens MicroScan turbidity metre; equal to ~1.0 × 10^8 colony forming units (CFU)/mL) and then diluted 200x in MHIIB (Mueller-Hinton II […] (BD-211438)) medium. The MHIIB media was supplemented with 5% Lysed Horse Blood (Shanghai YuanMu Biological Technology Co. Ltd. YM-U161) for S. pneumoniae.
(§3) ACX compounds were dissolved in pure DMSO (Sigma 276855) to a concentration of 20 mg/mL. From this, twofold serial dilutions (from […]) in DMSO were transferred to a 96-well source-plate (Axygen-wipp02280) with pure DMSO as a control. 2 µL from the source plate was then transferred into 96-well culture plates (Costar 3788) and inoculated with 198 µL of the bacterial suspension so that each well contained ~5.0 × 10^5 CFU/mL bacteria, 1% DMSO and serially diluted compounds at 0 µg/mL and 0.0625-64 µg/mL in 100 µl medium. For NRS384, which was tested in a separate experiment, 99 µL of bacterial suspension was added to 1 µL of compound. The plates were incubated in ambient atmosphere at 37 °C for 20 h.

[3] = system: Enterococcus faecium ATCC 700221 (VRE; vancomycin-resistant); assay: Broth microdilution MIC; format: cell-based; conditions: for MIC: Enterococcus faecium, read-out: Measured MIC; for Measured MIC: Table 2, polC WT, strain ATCC 700221
Description: as §1, §2, §3

[4] = system: Staphylococcus aureus ATCC 29213 (MSSA; methicillin-sensitive); assay: Broth microdilution MIC; format: cell-based; conditions: read-out: Measured MIC
Description: as §1, §2, §3

[5] = system: Enterococcus faecalis ATCC 29212; assay: Broth microdilution MIC; format: cell-based
Description: as §1, §2, §3

[6] = system: Streptococcus pneumoniae ATCC 49619 (PRSP; penicillin-resistant); assay: Broth microdilution MIC; format: cell-based; conditions: read-out: Measured MIC
Description: as §1, §2, §3

[7] = system: Staphylococcus aureus NRS384 (MRSA; methicillin-resistant); assay: Broth microdilution MIC; format: cell-based; conditions: read-out: Measured MIC
Description: as §1, §2, §3

[8] = read-out: Measured MIC, polC A1281T, strain Efa036, selected on 2 mg/L ACX-641
[9] = read-out: Measured MIC, polC A1281T, strain Efa040, selected on 4 mg/L ACX-671
[10] = read-out: Measured MIC, polC F1276I, strain Efa037, selected on 4 mg/L ACX-641
[11] = read-out: Measured MIC, polC F1276L, strain Efa030, selected on 16 mg/L ACX-728
[12] = read-out: Measured MIC, polC F1276S, strain Efa3, selected on 16 mg/L ACX-728
[13] = ATCC25922, read-out: Measured MIC
[14] = ATCC29212, read-out: Measured MIC

SMILES	MIC [1, 8]	MIC [1, 9]	MIC [1, 10]	MIC [1, 11]	MIC [1, 12]	MIC [2, 13]	MIC [3]	Measured MIC [3]	MIC [4]	MIC [5, 14]	MIC [6]	also measured
CCCCCCCCCC(=O)N[C@@H](Cc1c[nH]c2ccccc12)C(=O)N[C@H](CC(N)=O)C(=O)N[C@@H](CC(=O)O)C(=O)N[C@@H]1C(=O)NCC(=O)N[C@@H](CCCN)C(=O)N[C@@H](CC(=O)O)C(=O)N[C@H](C)C(=O)N[C@@H](CC(=O)O)C(=O)NCC(=O)N[C@H](CO)C(=O)N[C@@H]([C@H](C)CC(=O)O)C(=O)N[C@@H](CC(=O)c2ccccc2N)C(=O)O[C@@H]1C [DAP, daptomycin]	4 µg/mL	4 µg/mL	2 µg/mL	2 µg/mL	2 µg/mL	> 64 µg/mL	4 µg/mL (≈ 2.47 µM)	4 µg/mL	1 µg/mL (≈ 0.617 µM)	8 µg/mL (≈ 4.94 µM)	0.5 µg/mL (≈ 0.309 µM)	–
CN[C@H](CC(C)C)C(=O)N[C@H]1C(=O)N[C@@H](CC(N)=O)C(=O)N[C@H]2C(=O)N[C@H]3C(=O)N[C@H](C(=O)N[C@H](C(=O)O)c4cc(O)cc(O)c4-c4cc3ccc4O)[C@H](O)c3ccc(c(Cl)c3)Oc3cc2cc(c3O[C@@H]2O[C@H](CO)[C@@H](O)[C@H](O)[C@H]2O[C@H]2C[C@](C)(N)[C@H](O)[C@H](C)O2)Oc2ccc(cc2Cl)[C@H]1O [VAN, vancomycin]	–	–	–	–	–	> 64 µg/mL	> 64 µg/mL	>64 µg/mL	1 µg/mL (≈ 0.69 µM)	4 µg/mL (≈ 2.76 µM)	0.25 µg/mL (≈ 0.173 µM)	MIC ([1]; read-out: Measured MIC): > 64 µg/mL; Measured MIC ([1]; polC A1281T, strain Efa036, selected on 2 mg/L ACX-641): >64 µg/mL; Measured MIC ([1]; polC F1276I, strain Efa037, selected on 4 mg/L ACX-641): >64 µg/mL; Measured MIC ([1]; polC F1276L, strain Efa030, selected on 16 mg/L ACX-728): >64 µg/mL; Measured MIC ([1]; polC F1276S, strain Efa3, selected on 16 mg/L ACX-728): >64 µg/mL; MIC [7]: 1 µg/mL (≈ 0.69 µM)
CN(C)c1cc(CNCC(C)(C)C)c(O)c2c1C[C@H]1C[C@H]3[C@H](N(C)C)C(O)=C(C(N)=O)C(=O)[C@@]3(O)C(O)=C1C2=O [OMC, omadacycline]	0.12 µg/mL	0.12 µg/mL	≤ 0.06 µg/mL	0.12 µg/mL	≤ 0.06 µg/mL	–	–	0.12 µg/mL	–	–	–	MIC ([2]; ATCC25922, E. coli ATCC 25922, Table 1, single replicate, read-out: Measured MIC): 1 µg/mL (≈ 1.8 µM); MIC ([3]; E. faecium VRE ATCC 700221, Table 1, single replicate): 0.12 µg/mL (≈ 0.216 µM); MIC ([4]; S. aureus ATCC 29213, Table 1, single replicate): 0.5 µg/mL (≈ 0.898 µM); MIC ([5]; ATCC29212, E. faecalis ATCC 29212, Table 1, single replicate, read-out: Measured MIC): 0.25 µg/mL (≈ 0.449 µM); MIC ([6]; S. pneumoniae PRSP ATCC 49619, Table 1, single replicate): ≤ 0.06 µg/mL
